Measured values reported in patent US10004701B2, “Methods and compositions for treating infection” (UNIVERSITY OF ROCHESTER, priority 2012, dated 2018).
Structures can show the parent of a compound that is named as a salt. Where two headings read alike, the source gives them in different places.

Experiments:
Assay in all cases: AK assay 384-well format, Prestwick library screening
[1] = system: K. pneumoniae; format: cell-based, Klebsiella pneumoniae; details: Klebsiella pneumoniae, 3 h, 50 μM final drug concentration
[2] = system: E. faecium; format: cell-based, Enterococcus faecium; details: Enterococcus faecium, 3 h, 50 μM final drug concentration
[3] = system: E. cloacae; format: cell-based, Enterobacter cloacae; details: Enterobacter cloacae, 3 h, 50 μM final drug concentration
[4] = system: A. baumannii strain 98-37-09; format: cell-based, Acinetobacter baumannii; details: Acinetobacter baumannii, 983709, 3 h, 50 μM final drug concentration
[5] = system: E. coli; format: cell-based, Escherichia coli; details: Escherichia coli, 3 h, 50 μM final drug concentration
[6] = system: P. aeruginosa; format: cell-based, Pseudomonas aeruginosa; details: Pseudomonas aeruginosa, 3 h, 50 μM final drug concentration
[7] = system: S. aureus strain USA300-0114; format: cell-based, Staphylococcus aureus; details: Staphylococcus aureus, USA300, 3 h, 50 μM final drug concentration
[8] = planktonic K. pneumoniae, 384-well, cutoff for positive-scoring molecules 3-fold increase, read-out: AK-based Prestwick Library Screening Results: K. pneumoniae (increase in extracellular AK activity)
[9] = planktonic E. faecium, 384-well, cutoff for positive-scoring molecules 3-fold increase, read-out: AK-based Prestwick Library Screening Results: E. faecium (increase in extracellular AK activity)
[10] = planktonic E. cloacae, 384-well, cutoff for positive-scoring molecules 3-fold increase, read-out: AK-based Prestwick Library Screening Results: E. cloacae (increase in extracellular AK activity)
[11] = planktonic A. baumannii, 384-well, cutoff for positive-scoring molecules 3-fold increase, read-out: AK-based Prestwick Library Screening Results: A. baumannii (increase in extracellular AK activity)
[12] = planktonic E. coli, 384-well, cutoff for positive-scoring molecules 3-fold increase, read-out: AK-based Prestwick Library Screening Results: E. coli (increase in extracellular AK activity)
[13] = planktonic P. aeruginosa, 384-well, cutoff for positive-scoring molecules 3-fold increase, read-out: AK-based Prestwick Library Screening Results: P. aeruginosa (increase in extracellular AK activity)
[14] = planktonic S. aureus, 384-well, cutoff for positive-scoring molecules 3-fold increase, read-out: AK-based Prestwick Library Screening Results: S. aureus (increase in extracellular AK activity)
[15] = 384-well format, cutoff for positive-scoring molecules 3-fold increase, read-out: AK-based Prestwick Library Screening Results, K. pneumoniae (increase in extracellular AK activity)
[16] = 384-well format, cutoff for positive-scoring molecules 3-fold increase, read-out: AK-based Prestwick Library Screening Results, E. faecium (increase in extracellular AK activity)
[17] = 384-well format, cutoff for positive-scoring molecules 3-fold increase, read-out: AK-based Prestwick Library Screening Results, E. cloacae (increase in extracellular AK activity)
[18] = 384-well format, cutoff for positive-scoring molecules 3-fold increase, read-out: AK-based Prestwick Library Screening Results, A. baumannii (increase in extracellular AK activity)
[19] = 384-well format, cutoff for positive-scoring molecules 3-fold increase, read-out: AK-based Prestwick Library Screening Results, E. coli (increase in extracellular AK activity)
[20] = 384-well format, cutoff for positive-scoring molecules 3-fold increase, read-out: AK-based Prestwick Library Screening Results, P. aeruginosa (increase in extracellular AK activity)
[21] = 384-well format, cutoff for positive-scoring molecules 3-fold increase, read-out: AK-based Prestwick Library Screening Results, S. aureus (increase in extracellular AK activity)
[22] = planktonic, cutoff for positive 3-fold increase, read-out: AK-based Prestwick Library Screening Results, K. pneumoniae (fold increase in extracellular AK activity)
[23] = planktonic, cutoff for positive 3-fold increase, read-out: AK-based Prestwick Library Screening Results, E. faecium (fold increase in extracellular AK activity)
[24] = planktonic, cutoff for positive 3-fold increase, read-out: AK-based Prestwick Library Screening Results, E. cloacae (fold increase in extracellular AK activity)
[25] = planktonic, cutoff for positive 3-fold increase, read-out: AK-based Prestwick Library Screening Results, A. baumannii (fold increase in extracellular AK activity)
[26] = planktonic, cutoff for positive 3-fold increase, read-out: AK-based Prestwick Library Screening Results, P. aeruginosa (fold increase in extracellular AK activity)
[27] = planktonic, cutoff for positive 3-fold increase, read-out: AK-based Prestwick Library Screening Results, S. aureus (fold increase in extracellular AK activity)
[28] = planktonic K. pneumoniae, […], read-out: AK-based Prestwick library screening result, K. pneumoniae (fold increase in extracellular AK activity)
[29] = planktonic E. faecium, […], read-out: AK-based Prestwick library screening result, E. faecium (fold increase in extracellular AK activity)
[30] = planktonic E. cloacae, […], read-out: AK-based Prestwick library screening result, E. cloacae (fold increase in extracellular AK activity)
[31] = planktonic A. baumannii, […], read-out: AK-based Prestwick library screening result, A. baumannii (fold increase in extracellular AK activity)
[32] = planktonic E. coli, […], read-out: AK-based Prestwick library screening result, E. coli (fold increase in extracellular AK activity)
[33] = planktonic P. aeruginosa, […], read-out: AK-based Prestwick library screening result, P. aeruginosa (fold increase in extracellular AK activity)
[34] = planktonic S. aureus, […], read-out: AK-based Prestwick library screening result, S. aureus (fold increase in extracellular AK activity)

Structure (SMILES): CN1C[C@H](CNC(=O)OCc2ccccc2)C[C@@H]2c3cccc4c3c(cn4C)C[C@H]21 [Metergoline]
- fold induction at 50 µM ([1]; planktonic K. pneumoniae, cutoff for positive-scoring molecules 3-fold increase, read-out: AK-based Prestwick Library Screening Results, K. pneumoniae (increase in extracellular AK activity)): 1
- fold induction at 50 µM ([2]; planktonic E. faecium, cutoff for positive-scoring molecules 3-fold increase, read-out: AK-based Prestwick Library Screening Results, E. faecium (increase in extracellular AK activity)): 1
- fold induction at 50 µM ([3]; planktonic E. cloacae, cutoff for positive-scoring molecules 3-fold increase, read-out: AK-based Prestwick Library Screening Results, E. cloacae (increase in extracellular AK activity)): 1.3
- fold induction at 50 µM ([4]; planktonic A. baumannii, cutoff for positive-scoring molecules 3-fold increase, read-out: AK-based Prestwick Library Screening Results, A. baumannii (increase in extracellular AK activity)): 1.3
- fold induction at 50 µM ([5]; planktonic E. coli, cutoff for positive-scoring molecules 3-fold increase, read-out: AK-based Prestwick Library Screening Results, E. coli (increase in extracellular AK activity)): 1.2
- fold induction at 50 µM ([6]; planktonic P. aeruginosa, cutoff for positive-scoring molecules 3-fold increase, read-out: AK-based Prestwick Library Screening Results, P. aeruginosa (increase in extracellular AK activity)): 1.1
- fold induction at 50 µM ([7]; planktonic S. aureus, cutoff for positive-scoring molecules 3-fold increase, read-out: AK-based Prestwick Library Screening Results, S. aureus (increase in extracellular AK activity)): 1.1

Structure (SMILES): CCN(CC)CCNC(=O)c1cc(Cl)c(N)cc1OC [Metoclopramide monohydrochloride]
- fold induction at 50 µM [1, 8]: 0.9
- fold induction at 50 µM [2, 9]: 1.2
- fold induction at 50 µM [3, 10]: 1.6
- fold induction at 50 µM [4, 11]: 1.2
- fold induction at 50 µM [5, 12]: 1.3
- fold induction at 50 µM [6, 13]: 1.1
- fold induction at 50 µM [7, 14]: 0.9

Structure (SMILES): Nc1cc(N2CCCCC2)nc(N)[n+]1[O-] [Minoxidil]
- fold induction at 50 µM [1, 15]: 0.6
- fold induction at 50 µM [2, 16]: 1
- fold induction at 50 µM [3, 17]: 0.7
- fold induction at 50 µM [4, 18]: 0.8
- fold induction at 50 µM [5, 19]: 0.6
- fold induction at 50 µM [6, 20]: 0.6
- fold induction at 50 µM [7, 21]: 0.7

Structure (SMILES): CC1=CC(=O)c2ccccc2C1=O [Menadione]
- fold induction at 50 µM [1, 22]: 1
- fold induction at 50 µM [2, 23]: 1.1
- fold induction at 50 µM [3, 24]: 1.5
- fold induction at 50 µM [4, 25]: 1
- fold induction at 50 µM ([5]; planktonic, cutoff for positive 3-fold increase, read-out: AK-based Prestwick Library Screening Results, E. coli (fold increase in extracellular AK activity)): 1
- fold induction at 50 µM [6, 26]: 1.2
- fold induction at 50 µM [7, 27]: 1.4

Structure (SMILES): C[C@]12C=CC(=O)C=C1CC[C@@H]1[C@@H]2C(=O)C[C@@]2(C)[C@H]1CC[C@]2(O)C(=O)CO [Prednisone]
- fold induction at 50 µM [1, 8]: 0.9
- fold induction at 50 µM [2, 9]: 0.9
- fold induction at 50 µM [3, 10]: 1.4
- fold induction at 50 µM [4, 11]: 1.2
- fold induction at 50 µM [5, 12]: 1.2
- fold induction at 50 µM [6, 13]: 0.9
- fold induction at 50 µM [7, 14]: 1.1

Structure (SMILES): COc1c2c(cc3c1OCO3)CCN(C)C2 [Hydrocotarnine hydrobromide]
- fold induction at 50 µM [1, 22]: 0.9
- fold induction at 50 µM [2, 23]: 1
- fold induction at 50 µM [3, 24]: 1.4
- fold induction at 50 µM [4, 25]: 1.3
- fold induction at 50 µM ([5]; planktonic, […], read-out: AK-based Prestwick Library Screening Results, E. coli (fold increase in extracellular AK activity)): 1.2
- fold induction at 50 µM [6, 26]: 1.2
- fold induction at 50 µM [7, 27]: 1

Structure (SMILES): COc1ccc2cc([C@H](C)C(=O)O)ccc2c1 [Naproxen]
- fold induction at 50 µM [1, 15]: 0.9
- fold induction at 50 µM [2, 16]: 1
- fold induction at 50 µM [3, 17]: 1.4
- fold induction at 50 µM [4, 18]: 1.1
- fold induction at 50 µM [5, 19]: 1.2
- fold induction at 50 µM [6, 20]: 1
- fold induction at 50 µM [7, 21]: 0.8

Structure (SMILES): C[n+]1cc2c3c(ccc2c2ccc4cc5c(cc4c21)OCO5)OCO3 [Sanguinarine]
- fold induction at 50 µM [1, 28]: 0.2
- fold induction at 50 µM [2, 29]: 0.3
- fold induction at 50 µM [3, 30]: 0.9
- fold induction at 50 µM [4, 31]: 0.7
- fold induction at 50 µM [5, 32]: 0.6
- fold induction at 50 µM [6, 33]: 0.3
- fold induction at 50 µM [7, 34]: 0.1

Structure (SMILES): C[C@]12CC[C@H]3[C@@H](CCC4=CC(=O)CC[C@@H]43)[C@@H]1CC[C@@H]2O [Nandrolone]
- fold induction at 50 µM [1, 28]: 0.7
- fold induction at 50 µM [2, 29]: 1
- fold induction at 50 µM [3, 30]: 1
- fold induction at 50 µM [4, 31]: 0.8
- fold induction at 50 µM [5, 32]: 0.9
- fold induction at 50 µM [6, 33]: 0.9
- fold induction at 50 µM [7, 34]: 0.7

Structure (SMILES): CC(C(=O)O)c1ccc(N2Cc3ccccc3C2=O)cc1 (centres unmarked) [Indoprofen]
- fold induction at 50 µM ([1]; planktonic, cutoff for positive-scoring molecules 3-fold increase, read-out: AK-based Prestwick Library Screening Results, K. pneumoniae (fold increase in extracellular AK activity)): 0.1
- fold induction at 50 µM ([2]; planktonic, cutoff for positive-scoring molecules 3-fold increase, read-out: AK-based Prestwick Library Screening Results, E. faecium (fold increase in extracellular AK activity)): 0.1
- fold induction at 50 µM ([3]; planktonic, cutoff for positive-scoring molecules 3-fold increase, read-out: AK-based Prestwick Library Screening Results, E. cloacae (fold increase in extracellular AK activity)): 1.5
- fold induction at 50 µM ([4]; planktonic, cutoff for positive-scoring molecules 3-fold increase, read-out: AK-based Prestwick Library Screening Results, A. baumannii (fold increase in extracellular AK activity)): 0.2
- fold induction at 50 µM ([5]; planktonic, cutoff for positive-scoring molecules 3-fold increase, read-out: AK-based Prestwick Library Screening Results, E. coli (fold increase in extracellular AK activity)): 0.2
- fold induction at 50 µM ([6]; planktonic, cutoff for positive-scoring molecules 3-fold increase, read-out: AK-based Prestwick Library Screening Results, P. aeruginosa (fold increase in extracellular AK activity)): 0.2
- fold induction at 50 µM ([7]; planktonic, cutoff for positive-scoring molecules 3-fold increase, read-out: AK-based Prestwick Library Screening Results, S. aureus (fold increase in extracellular AK activity)): 0.2

Structure (SMILES): Fc1ccc(C(c2ccc(F)cc2)N2CCN(C/C=C/c3ccccc3)CC2)cc1 [Flunarizine dihydrochloride]
- fold induction at 50 µM [1, 8]: 1.4
- fold induction at 50 µM [2, 9]: 1.3
- fold induction at 50 µM [3, 10]: 1.6
- fold induction at 50 µM [4, 11]: 2.6
- fold induction at 50 µM [5, 12]: 1.7
- fold induction at 50 µM [6, 13]: 1.3
- fold induction at 50 µM [7, 14]: 1.1
